Experimental data published in PMC12041765, “The development of a high-throughput acoustic droplet ejection mass-spectrometry assay and a solid-supported membrane (SSM)-based electrophysiological assay to study the pharmacological inhibition of SLC1-A3, -A2 and -A1 in a drug discovery program” (Frontiers in Pharmacology, 2025).
Read-outs that look alike come from different tables or passages of the source.

What was measured:
SLC1A2 (EAAT2) = target: T1, SLC1A2 (EAAT2) (Homo sapiens, UniProt P43004); assay: SSM-based electrophysiology (SURFE2R 96 SE), EAAT2 membrane fragments; format: biochemical; details: glutamic acid up to 500 µM, membrane 4 µg/well, read-out: SURFE^2R Km
T1 construct: host or cells: HEK293-JumpIn, doxycycline-induced
T1 sequence (P43004 whole entry, the tested form may be a part): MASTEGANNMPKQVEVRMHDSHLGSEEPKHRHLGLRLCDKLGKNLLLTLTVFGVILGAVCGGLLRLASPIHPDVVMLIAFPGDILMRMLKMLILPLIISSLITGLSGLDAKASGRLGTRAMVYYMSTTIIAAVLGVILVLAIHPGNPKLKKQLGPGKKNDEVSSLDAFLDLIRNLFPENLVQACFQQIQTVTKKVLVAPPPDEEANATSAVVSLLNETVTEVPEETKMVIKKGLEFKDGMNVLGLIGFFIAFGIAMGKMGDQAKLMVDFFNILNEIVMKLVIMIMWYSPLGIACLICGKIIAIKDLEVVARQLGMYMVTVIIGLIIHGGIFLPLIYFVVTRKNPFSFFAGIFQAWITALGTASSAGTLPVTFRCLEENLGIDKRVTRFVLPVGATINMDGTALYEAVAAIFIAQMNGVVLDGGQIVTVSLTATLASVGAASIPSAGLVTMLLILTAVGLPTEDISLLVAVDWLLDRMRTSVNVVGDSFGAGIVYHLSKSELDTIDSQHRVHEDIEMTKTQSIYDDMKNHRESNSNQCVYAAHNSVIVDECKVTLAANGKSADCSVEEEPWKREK

EAAT2 [1] = test system: EAAT2; set-up: method as in Arriza et al. (1994); details: radio-labeled uptake, COS7 cells, ref Arriza et al. (1994); cited from earlier work
EAAT2 [2] = test system: EAAT2; set-up: method as in Arriza et al. (1994); details: oocytes, Voltage-Clamp, ref Arriza et al. (1994); cited from earlier work
EAAT2 [3] = details: cited from earlier work
EAAT3 [4] = details: cited from earlier work
EAAT1 [5] = details: radio-labeled uptake, COS7 cells, ref Arriza et al. (1994); cited from earlier work
EAAT3 [6] = details: radio-labeled uptake, COS7 cells, ref Arriza et al. (1994); cited from earlier work
EAAT1 [7] = details: oocytes, Voltage-Clamp, ref Arriza et al. (1994); cited from earlier work
EAAT3 [8] = details: oocytes, Voltage-Clamp, ref Arriza et al. (1994); cited from earlier work
EAAT1 [9] = details: glutamic acid uptake assay, ref Vallejo-Illarramendi et al. (2005); cited from earlier work
EAAT1 [10] = details: cited from earlier work
[11] = FLIPR membrane potential assay, ref Faure et al. (2006)
[12] = similar methodologies (FLIPR), ref Alaux et al. (2005)

Q: What does the source list for `N[C@@H](CCC(=O)O)C(=O)O` [glutamic acid, L-glutamic acid]?
A: Km (SLC1A2 (EAAT2)): 9.5 µM; Km (EAAT2 [1]): 97 ± 4 µM; Km (EAAT2 [2]): 18 ± 3 µM; Km (EAAT2 [3]; [11]): 21 µM; Km (EAAT2 [3]; [12]): 21 µM; Km (EAAT3 [4]; [11]): 9.9 µM; Km (EAAT3 [4]; [12]): 25 µM; Km (EAAT1 [5]): 48 ± 10 µM; Km (EAAT3 [6]): 62 ± 8 µM; Km (EAAT1 [7]): 20 ± 3 µM; Km (EAAT3 [8]): 28 ± 6 µM; Km (EAAT1 [9]): 27.5 ± 2.3 µM; Km (EAAT1 [10]; [11]): 7.9 µM; Km (EAAT1 [10]; [12]): 9.2 µM
